In PMC4977052, “On the Utility of ToxCast™ and ToxPi as Methods for Identifying New Obesogens” (Environmental Health Perspectives, 2016):
Several values for one entry are separate records, joined by “and”; a condition that tells them apart may be missing. Equal values may be shown once. Entries after “also recorded” stand apart in the source; their conditions may differ. Read-outs that look alike come from different tables or passages of the source.

What was measured:
PPARγ [1] = tested on: PPARγ; parameters: method as in Filer et al. 2014; settings: PPARγ; NA = not active; ref Filer et al. 2014; read-out: NCGC Antag. AC50, 2014 Release; cited from earlier work
C/EBP = tested on: C/EBP; parameters: method as in Knudsen et al. 2011; settings: ToxCast Phase I 2011 release; NA = not active; ref Knudsen et al. 2011; read-out: ATGC CEBP AC50; cited from earlier work
GAL4-mPPARγ = target: T1, GAL4-mPPARγ (Mus musculus, UniProt P37238); assay: GAL4-mPPARγ activation, transient transfection luciferase reporter in COS7 cells; format: cell-based
T1 construct: expressed in transfected cells; host or cells: COS7
Description: pCMX-Gal4, pCMX-Gal4-mPPARγ, and pCMX-Gal4-hRXRα were previously described ([Grün et al. 2006]). Transient transfections were performed in COS7 cells as described ([Chamorro-García et al. 2012]). Briefly, COS7 cells were seeded at 15,000 cells per well in 96-well tissue culture plates in 10% calf bovine serum. The following day, cells were transfected in Opti-MEM at ~ 90% confluency. One microgram of CMX-GAL4 effector plasmid was co-transfected with 5 μg tk-(MH100)4-luciferase reporter and 5 μg of CMX-β-galactosidase transfection control plasmids in Opti-MEM® using Lipofectamine® 2000 reagent (Invitrogen™ Life Technologies, Carlsbad, CA, USA), following the manufacturer’s recommended protocol. All chemicals were solvated in dimethyl sulfoxide (DMSO). After overnight incubation, the medium was replaced with Dulbecco’s Modified Eagle Medium (DMEM; HyClone, Logan, UT, USA), 10% resin charcoal stripped fetal bovine serum (FBS) plus ligands at concentrations indicated in the figure legends for an additional 24 hr. DMSO concentration was maintained at 0.05% across all chemical treatments. Cells were lysed and assayed for luciferase and β-galactosidase activity as previously described ([Forman et al. 1995]). All transfections were performed in triplicate and reproduced in multiple experiments. Data are reported as fold induction or reduction over vehicle ([…]) controls ± SEM (standard error of the mean) using standard propagation of error ([Bevington and Robinson 2003]). […] The EC50, EC10, IC50, and IC10 values from NCGC and ToxCast™ are reported from gain AC50 and AC10 values in the ToxCast™ 2014 release ([Filer et al. 2014]).
Figure 1 ToxCast™ Chemical Activity on PPARγ. The ability of a graded dose series of ToxCast™ chemicals to (A) activate or (B) antagonize GAL4-mPPARγ was tested in transiently transfected COS7 cells. (A, B) Data points are averages of triplicate transfections (three biological replicates). […] Data are depicted as (A) fold induction or (B) reduction over vehicle (0.05% DMSO) controls ± SEM. (A) ToxCast™ chemicals were tested in 3-fold serial dilutions from 100 μM through 0.137 μM, with the final data point being 0.05% DMSO. Rosiglitazone serves as a positive control activator. (B) ToxCast™ chemicals were tested in 3-fold serial dilutions from 100 μM, in competition with 50 nM rosiglitazone (Rosi). […] (C) EC50, EC10, IC50, and IC10 values calculated from A and B are reported and compared to commercial assays (see Figure S1). Note: ATG, Attagene GAL-PPARγ activation assay; NCGC, GeneBLAzer® agonist (EC values) or antagonist (IC values) assays. Triphenyltin was previously published ([Kanayama et al. 2005]).
Figure 4 ToxPi Chemical Activity on PPARγ and RXRα. The ability of a graded dose series of ToxPi chemicals to activate (A) GAL4-mPPARγ or (B) GAL4-hRXRα was tested in transiently transfected COS7 cells. (A, B) Data points are averages of triplicate transfections (three biological replicates). […] ToxPi chemicals were tested in 3-fold serial dilutions from 100 μM through 0.137 μM, with the final data point being 0.05% DMSO. Data are depicted as fold induction over vehicle (0.05% DMSO) controls ± SEM. (A) Rosiglitazone serves as a positive control activator for GAL4-mPPARγ. (B) LG100268 (2-[1-(3,5,5,8,8-Pentamethyl-5,6,7,8-tetrahydro-2-naphthyl)cyclopropyl]pyridine-5-carboxylic acid) serves as a positive control activator for GAL4-hRXRα. (C) EC50 and EC10 values calculated from A and B are reported and compared to other assays (see Figure S1). ATG, Attagene GAL-PPARγ or GAL-RXRα activation assay; NCGC, GeneBLAzer® GAL-PPARγ or GAL-RXRα activation assays. Triphenyltin was previously published ([Kanayama et al. 2005]).

Human PPARγ = settings: PPARγ direct binding; NA = not active; ref Filer et al. 2014; read-out: NVS Agonist AC50, 2014 Release; cited from earlier work
PPARγ [2] = settings: cited from earlier work; for AC50: NA = not active
PPRE = tested on: PPRE; parameters: method as in Knudsen et al. 2011; settings: ToxCast Phase I 2011 release; NA = not active; ref Knudsen et al. 2011; read-out: ATGC PPRE AC50; cited from earlier work
LXRα = tested on: LXRα; parameters: method as in Knudsen et al. 2011; settings: ToxCast Phase I 2011 release; NA = not active; ref Knudsen et al. 2011; read-out: ATGT LXRα AC50; cited from earlier work
LXRβ = tested on: LXRβ; parameters: method as in Knudsen et al. 2011; settings: ToxCast Phase I 2011 release; NA = not active; ref Knudsen et al. 2011; read-out: ATGT LXRβ AC50; cited from earlier work
3T3-L1 preadipocytes = assay: 3T3-L1 adipogenesis assay (lipid accumulation, adipogenic gene expression); format: cell-based; settings: 0.02-20 μM, 5 days after MDI induction
Description: 3T3-L1 cells (ATCC) were maintained in high-glucose DMEM supplemented with 10% fetal bovine serum, 2 mM L-glutamine, 50 IU/mL penicillin, and 50 μg/mL streptomycin. A total of 2 × 10^4 cells per well were seeded in 12-well plates. After 48 hr, cells were exposed to the adipogenic cocktail MDI (500 μM isobutylmethylxanthine, 0.25 nM dexamethasone and 5 μg/mL insulin), 8 μg/mL biotin and 8 μg/mL pantothenate for 2 days. Induction media was removed and cells were exposed to test chemicals during 5 days, replacing the media every 2 days. Rosiglitazone (ROSI) and tributyltin (TBT) were used as positive controls at 100 nM and 50 nM final concentrations, respectively. All ToxCast™ chemicals were tested at 0.02, 0.2, 2, and 20 μM, and DMSO concentration was maintained at 0.1% across all treatments. If the chemical was toxic at 20 μM, we repeated the experiment at 10 μM.
Cells were either fixed in 3.7% formaldehyde in phosphate-buffered saline (PBS) for 30 min at room temperature (RT) for lipid quantitation, or homogenized in TriPure (Roche, Mannheim, Germany) for gene expression analysis. For lipid quantitation, fixed cells were washed twice with PBS and maintained in PBS overnight at 4°C to release residual phenol red. Background of cells were measured prior to staining. Cells were stained with 1 μg/mL Nile red (CAS No. 7385-67-3) (to detect lipid accumulation) and 1 μg/mL Hoechst 33342 (ThermoFisher Scientific) (to detect nuclei as a surrogate for cell number) in PBS for 15 min in the dark at RT and washed twice with PBS. […] Background values of Hoechst and Nile red were subtracted from the RFUs after staining and the ratio RFUNile Red:RFUHoechst was calculated. Data are represented as mean ± SEM. Total RNA was isolated using TriPure (Roche) as recommended by the manufacturer. Reverse transcription and quantitative real-time RT-PCR (QPCR) were performed using Transcriptor RT and SYBR® Green Master Mix (Roche). cDNA was quantitated in a LightCycler® 480 System (Roche Diagnostics, Basel, Switzerland) using primer sets listed in Table S4. Each primer set amplified a single band as determined by gel electrophoresis and melting curve analysis. QPCR data were analyzed using the 2^ΔΔCt method ([Livak and Schmittgen 2001]) relative to ribosomal protein 36b4, normalizing to 0.1% DMSO vehicle. Error bars represent the SEM from four to six biological replicates calculated using standard propagation of error ([Bevington and Robinson 2003]).

[3] = PPARγ, ref Filer et al. 2014, read-out: ATG Agonist AC50, 2014 Release
[4] = PPARγ, ref Knudsen et al. 2011, read-out: ATG Agonist AC50, 2011 Release
[5] = Cos-7 transient transfection, PPARγ or RXRα activation assays (Table 2)
[6] = ToxCast Phase I 2011 release, ref Knudsen et al. 2011, read-out: ATGT PPARγ AC50

T1 sequence (P37238 with tags, fused parts or gaps limits assumed): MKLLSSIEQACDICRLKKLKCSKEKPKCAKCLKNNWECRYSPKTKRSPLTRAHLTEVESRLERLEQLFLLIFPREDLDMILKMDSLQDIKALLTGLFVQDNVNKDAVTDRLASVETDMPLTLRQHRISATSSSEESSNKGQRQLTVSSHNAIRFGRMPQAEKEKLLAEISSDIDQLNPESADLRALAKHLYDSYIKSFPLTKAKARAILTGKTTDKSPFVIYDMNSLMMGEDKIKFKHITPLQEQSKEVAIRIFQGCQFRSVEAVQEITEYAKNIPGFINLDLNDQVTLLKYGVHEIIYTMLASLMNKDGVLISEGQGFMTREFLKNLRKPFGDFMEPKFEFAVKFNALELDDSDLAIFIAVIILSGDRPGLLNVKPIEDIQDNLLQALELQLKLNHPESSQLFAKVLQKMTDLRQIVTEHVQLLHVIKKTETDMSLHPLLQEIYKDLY

Structure (SMILES)	AC50 (PPARγ [1]) [µM]	AC50 (C/EBP) [µM]	Activation COS7 (result in words), ToxCast PPARγ list (GAL4-mPPARγ)	Activation COS7 (result in words), ToxPi chemicals (GAL4-mPPARγ)	AC50 (Human PPARγ) [µM]	AC50 (PPARγ [2]; [3])	AC50 (PPARγ [2]; [4]) [µM]	AC50 (PPRE) [µM]	AC50 (LXRα) [µM]	AC50 (LXRβ) [µM]	Adipogenesis 3T3-L1 (result in words) (3T3-L1 preadipocytes)	Activation COS7 (result in words), ToxPi chemicals (GAL4-mPPARγ; [5])	AC50 (PPARγ [2]; [6]) [µM]	AC50 (GAL4-mPPARγ) [µM]	EC50 (GAL4-mPPARγ) [µM]	Activation of GAL4-PPARγ (text) (GAL4-mPPARγ; COS7, 100 μM through 0.137 μM)	PPARγ agonists: EC10, Fig 1A / Fig 4A (GAL4-mPPARγ; COS7, computed from EC50 in GraphPad Quick Calc) [µM]	PPARγ agonists: EC10, ATG (PPARγ [2]; AC10, ToxCast 2014 release, ref Filer et al. 2014) [µM]	EC50 (PPARγ [2]; gain AC50, ToxCast 2014 release, ref Filer et al. 2014, read-out: PPARγ agonists: EC50, ATG) [µM]	Activation COS7 (result in words), ToxCast PPARγ list (GAL4-mPPARγ; Cos-7 transient transfection, PPARγ activation or antagonism assays (Table 1, Table S6))
Cc1ccc(-c2c(Cl)nc(C#N)n2S(=O)(=O)N(C)C)cc1 [Cyazofamid]	32.3	8.7	Inactive	Inactive	9.6	10.1 µM and 9.4 µM	11	12	11	13	Negative									
O=C(Nc1ccccc1)Nc1ccnc(Cl)c1 [Forchlorfenuron]		40						26		37	Positive	Inactive	46							
CC(C)(C)c1ccc(CSc2cnn(C(C)(C)C)c(=O)c2Cl)cc1 [Pyridaben]								1.6			strongly inhibited adipogenesis; also recorded: Inhibitor	PPARγ activator	14	3	2.98	activated PPARγ	0.53	2.57	10.1	
CCc1nn(C)c(C(=O)NCc2ccc(C(C)(C)C)cc2)c1Cl [Tebufenpyrad]	23.1					2.6 µM	4.9	0.83	0.36	0.46	Negative	Inactive								Inactive
